The text below walks through data of article PMC5336358, “Origin and evolution of transporter substrate specificity within the NPF family” (eLife, 2017).

One data set deals with T1, BrGTR3 (BrH02396) (Brassica rapa, UniProt A0A397YP93).
T1 construct: gene BRARA_H02396; full-length untagged, codon-optimized cRNA in Xenopus laevis oocytes; primer encodes N-term MEVEKTQE
T1 sequence (A0A397YP93 1-591): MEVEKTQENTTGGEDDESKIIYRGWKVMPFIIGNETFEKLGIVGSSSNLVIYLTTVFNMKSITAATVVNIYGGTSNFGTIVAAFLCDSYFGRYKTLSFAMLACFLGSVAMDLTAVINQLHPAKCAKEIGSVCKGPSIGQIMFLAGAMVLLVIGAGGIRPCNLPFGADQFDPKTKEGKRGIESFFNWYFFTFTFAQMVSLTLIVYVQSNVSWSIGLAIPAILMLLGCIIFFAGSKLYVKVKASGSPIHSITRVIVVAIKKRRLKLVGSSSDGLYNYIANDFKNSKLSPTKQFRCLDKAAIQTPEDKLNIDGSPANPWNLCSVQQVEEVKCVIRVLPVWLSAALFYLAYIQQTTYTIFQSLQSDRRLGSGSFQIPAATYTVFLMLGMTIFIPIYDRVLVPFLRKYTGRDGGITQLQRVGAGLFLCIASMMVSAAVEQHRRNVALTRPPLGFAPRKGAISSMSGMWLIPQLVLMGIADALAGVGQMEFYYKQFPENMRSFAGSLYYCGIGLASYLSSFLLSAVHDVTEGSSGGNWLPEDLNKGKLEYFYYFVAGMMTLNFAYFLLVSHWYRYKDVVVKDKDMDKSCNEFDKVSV
The data set is described as follows: oocyte uptake, LC-MS; TEVC currents. Type of data set: cell-based. The note with it: […] substrate, pH […] min.

Another data set concerns the target T2, BrGTR1 (BrF01711) (Brassica rapa, UniProt A0A8D9DAH7).
T2 construct: gene BRAPAZ1V2_A06P20680.2; full-length untagged, codon-optimized cRNA in Xenopus laevis oocytes; primer encodes N-term MERKPFE
T2 sequence (A0A8D9DAH7 1-615): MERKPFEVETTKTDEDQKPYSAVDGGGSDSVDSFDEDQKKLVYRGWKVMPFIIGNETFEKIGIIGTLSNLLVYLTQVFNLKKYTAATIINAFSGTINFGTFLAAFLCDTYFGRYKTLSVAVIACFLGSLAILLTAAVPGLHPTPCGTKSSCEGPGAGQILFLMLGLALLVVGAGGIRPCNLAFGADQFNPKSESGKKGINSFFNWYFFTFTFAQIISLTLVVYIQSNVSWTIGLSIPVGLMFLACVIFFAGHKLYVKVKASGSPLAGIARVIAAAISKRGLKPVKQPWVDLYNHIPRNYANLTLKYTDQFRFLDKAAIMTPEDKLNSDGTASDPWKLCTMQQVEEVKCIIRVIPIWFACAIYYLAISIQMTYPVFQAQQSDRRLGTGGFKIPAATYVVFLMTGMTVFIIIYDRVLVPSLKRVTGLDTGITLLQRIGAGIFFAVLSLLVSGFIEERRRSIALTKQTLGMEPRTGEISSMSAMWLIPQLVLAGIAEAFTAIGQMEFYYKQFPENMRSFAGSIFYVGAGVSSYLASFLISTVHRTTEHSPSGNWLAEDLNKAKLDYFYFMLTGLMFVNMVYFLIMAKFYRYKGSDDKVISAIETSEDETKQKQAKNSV
In words: oocyte uptake, LC-MS; TEVC currents. Type of data set: cell-based. The settings on record: […] substrate, pH […] min.

Another data set deals with T3, GTR3 (NPF2.9, At1g18880) (Arabidopsis thaliana, UniProt Q9M9V7).
T3 construct: full-length untagged, cRNA in Xenopus laevis oocytes
T3 sequence (Q9M9V7 1-587): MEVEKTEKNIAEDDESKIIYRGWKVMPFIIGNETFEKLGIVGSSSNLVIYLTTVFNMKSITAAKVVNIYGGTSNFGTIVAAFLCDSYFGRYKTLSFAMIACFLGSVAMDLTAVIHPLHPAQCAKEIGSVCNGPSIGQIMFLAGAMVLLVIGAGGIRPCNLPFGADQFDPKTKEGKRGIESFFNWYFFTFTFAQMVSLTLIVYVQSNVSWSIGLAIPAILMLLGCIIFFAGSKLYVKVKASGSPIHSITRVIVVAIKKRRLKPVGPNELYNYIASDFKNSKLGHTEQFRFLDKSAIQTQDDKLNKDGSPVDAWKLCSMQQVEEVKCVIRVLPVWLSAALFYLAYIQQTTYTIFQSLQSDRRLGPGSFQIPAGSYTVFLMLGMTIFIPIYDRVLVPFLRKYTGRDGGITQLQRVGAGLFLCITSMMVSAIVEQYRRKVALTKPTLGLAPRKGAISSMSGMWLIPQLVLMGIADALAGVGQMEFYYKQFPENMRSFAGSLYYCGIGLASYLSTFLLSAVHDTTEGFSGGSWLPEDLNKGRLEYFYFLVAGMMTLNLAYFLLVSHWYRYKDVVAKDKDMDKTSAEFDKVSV
The data set is described as follows: TEVC currents in Xenopus oocytes, Michaelis-Menten fit. Type of data set: cell-based. The note with it: pH 5, -60 mV membrane potential.

A further data set has as its target T4, GTR1 (AtGTR1, NPF2.10) (Arabidopsis thaliana, UniProt Q944G5).
T4 construct: full-length untagged, cRNA in Xenopus laevis oocytes
T4 sequence (Q944G5 1-636): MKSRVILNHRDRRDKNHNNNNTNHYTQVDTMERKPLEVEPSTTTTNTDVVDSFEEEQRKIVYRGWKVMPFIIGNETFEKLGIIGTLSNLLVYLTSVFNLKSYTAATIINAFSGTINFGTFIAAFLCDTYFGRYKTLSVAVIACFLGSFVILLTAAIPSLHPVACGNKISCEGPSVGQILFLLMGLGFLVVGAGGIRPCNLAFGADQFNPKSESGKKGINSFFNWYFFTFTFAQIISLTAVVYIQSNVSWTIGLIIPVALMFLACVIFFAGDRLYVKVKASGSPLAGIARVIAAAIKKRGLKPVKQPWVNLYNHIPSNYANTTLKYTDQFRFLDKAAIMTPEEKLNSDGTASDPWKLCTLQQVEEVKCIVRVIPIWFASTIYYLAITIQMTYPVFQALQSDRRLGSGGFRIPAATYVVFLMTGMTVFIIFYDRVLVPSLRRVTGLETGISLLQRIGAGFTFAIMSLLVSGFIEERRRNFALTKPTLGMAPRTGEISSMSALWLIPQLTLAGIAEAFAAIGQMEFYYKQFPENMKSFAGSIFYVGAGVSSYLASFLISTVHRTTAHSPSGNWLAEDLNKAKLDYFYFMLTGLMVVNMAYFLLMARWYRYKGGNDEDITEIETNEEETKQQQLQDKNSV
The description is as above. It is filed as cell-based. The note with it: pH 5, -60 mV membrane potential.

Another data set concerns the target T5, GTR2 (AtGTR2, NPF2.11) (Arabidopsis thaliana, UniProt Q9LV10).
T5 construct: full-length untagged, cRNA in Xenopus laevis oocytes
T5 sequence (Q9LV10 1-616): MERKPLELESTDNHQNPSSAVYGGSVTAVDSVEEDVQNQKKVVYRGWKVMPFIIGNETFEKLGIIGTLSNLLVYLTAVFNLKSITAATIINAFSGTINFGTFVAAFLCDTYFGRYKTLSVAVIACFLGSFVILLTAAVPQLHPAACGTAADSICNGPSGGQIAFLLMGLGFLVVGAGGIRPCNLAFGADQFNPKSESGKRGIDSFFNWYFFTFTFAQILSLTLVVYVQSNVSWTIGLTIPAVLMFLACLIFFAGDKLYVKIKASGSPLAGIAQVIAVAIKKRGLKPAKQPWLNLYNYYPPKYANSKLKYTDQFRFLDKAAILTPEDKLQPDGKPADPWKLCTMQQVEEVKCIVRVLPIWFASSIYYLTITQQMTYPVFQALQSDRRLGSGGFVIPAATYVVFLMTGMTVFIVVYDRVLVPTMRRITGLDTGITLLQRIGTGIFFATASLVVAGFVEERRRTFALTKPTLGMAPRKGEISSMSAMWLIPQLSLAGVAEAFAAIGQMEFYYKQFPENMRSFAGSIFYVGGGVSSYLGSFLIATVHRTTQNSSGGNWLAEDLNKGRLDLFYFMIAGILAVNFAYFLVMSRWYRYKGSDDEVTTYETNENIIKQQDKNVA
The data set is described as above. Type of data set: cell-based. The settings on record: pH 5, -60 mV membrane potential.

Another data set addresses T6, Me15G176100 (Manihot esculenta, UniProt A0A2C9UH66).
T6 construct: gene MANES_15G175484v8; full-length untagged, codon-optimized cRNA in Xenopus laevis oocytes; primer encodes N-term MEDKEEKS
The data set is described as follows: oocyte uptake, LC-MS. Type of data set: cell-based. The settings on record: 0.2 mM substrate, pH 5, 60 min.

The target of a further data set is T7, Me14G074000 (Manihot esculenta, UniProt A0A2C9ULI5).
T7 construct: gene MANES_14G074000v8; full-length untagged, codon-optimized cRNA in Xenopus laevis oocytes; primer encodes N-term MATGETI
The data set is described as follows: oocyte uptake, LC-MS. Type of data set: cell-based. The note with it: 0.2 mM substrate, pH 5, 60 min.

The next data set deals with T8, CpGTRL2 (Cp17.190).
T8 construct: full-length untagged, codon-optimized cRNA in Xenopus laevis oocytes; primer encodes N-term MEMDGKE
In words: TEVC currents in Xenopus oocytes, Michaelis-Menten fit. Type of data set: cell-based, Carica papaya. The note with it: pH 5, -60 mV membrane potential.

Substrate in data set [1]: CC(C)(C#N)O[C@@H]1O[C@H](CO)[C@@H](O)[C@H](O)[C@H]1O
The data set is described as above. It is filed as cell-based, Manihot esculenta. The settings on record: pH 5, -60 mV membrane potential.

Substrate in data set [2]: N#C[C@H](O[C@@H]1O[C@H](CO)[C@@H](O)[C@H](O)[C@H]1O)c1ccccc1
The description is as above. Type of data set: cell-based, Manihot esculenta. The note with it: pH 5, -60 mV membrane potential.

T7 sequence (A0A2C9ULI5 entry or part of it): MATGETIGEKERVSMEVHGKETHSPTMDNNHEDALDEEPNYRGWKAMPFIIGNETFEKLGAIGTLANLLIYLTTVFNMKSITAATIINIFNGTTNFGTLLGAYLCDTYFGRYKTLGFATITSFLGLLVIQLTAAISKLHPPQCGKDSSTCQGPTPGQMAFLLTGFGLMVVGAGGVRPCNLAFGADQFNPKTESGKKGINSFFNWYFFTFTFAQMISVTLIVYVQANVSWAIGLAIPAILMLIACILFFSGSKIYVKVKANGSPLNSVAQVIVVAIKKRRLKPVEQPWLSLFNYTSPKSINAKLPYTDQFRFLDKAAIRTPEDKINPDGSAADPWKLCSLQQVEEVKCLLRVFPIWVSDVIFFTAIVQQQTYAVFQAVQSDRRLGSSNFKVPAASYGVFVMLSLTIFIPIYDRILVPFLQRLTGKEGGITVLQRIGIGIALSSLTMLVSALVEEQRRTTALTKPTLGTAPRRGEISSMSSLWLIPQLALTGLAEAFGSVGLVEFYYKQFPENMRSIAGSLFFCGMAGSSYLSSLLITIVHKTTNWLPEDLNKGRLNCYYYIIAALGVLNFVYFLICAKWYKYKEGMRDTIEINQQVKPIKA
T6 sequence (A0A2C9UH66 entry or part of it): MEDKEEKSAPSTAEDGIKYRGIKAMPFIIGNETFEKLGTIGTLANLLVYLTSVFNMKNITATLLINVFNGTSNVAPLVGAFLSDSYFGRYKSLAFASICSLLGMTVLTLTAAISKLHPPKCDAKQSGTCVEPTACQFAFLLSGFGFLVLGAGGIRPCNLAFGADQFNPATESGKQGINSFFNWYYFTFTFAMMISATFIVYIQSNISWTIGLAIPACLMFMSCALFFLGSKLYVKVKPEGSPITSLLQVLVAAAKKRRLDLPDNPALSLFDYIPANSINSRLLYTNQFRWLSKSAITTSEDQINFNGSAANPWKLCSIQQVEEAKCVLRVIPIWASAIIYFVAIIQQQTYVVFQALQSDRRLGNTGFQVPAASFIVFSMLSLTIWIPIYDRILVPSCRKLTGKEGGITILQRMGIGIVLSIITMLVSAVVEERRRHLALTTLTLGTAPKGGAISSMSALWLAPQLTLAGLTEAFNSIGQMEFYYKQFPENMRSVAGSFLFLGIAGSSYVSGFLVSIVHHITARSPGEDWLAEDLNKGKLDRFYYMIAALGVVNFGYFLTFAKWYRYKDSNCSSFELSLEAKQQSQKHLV

Consider `O=S(=O)(O)O/N=C(/Cc1c[nH]c2ccccc12)S[C@@H]1O[C@H](CO)[C@@H](O)[C@H](O)[C@H]1O` [I3M, indol-3-yl-methyl glucosinolate], for which the “oocyte uptake, LC-MS; TEVC currents” value at BrGTR3 (BrH02396) was “strong preference for I3M by the tested BrGTR3 ortholog (BrH02396)”; on BrGTR1 (BrF01711), “BrGTR1 ortholog (BrF01711) transported 4MTB and I3M with similar efficiency”. The Km (usually the concentration of substrate that gives half-maximal velocity) is under 25 µM on GTR3 (NPF2.9, At1g18880); under 25 µM on GTR1 (AtGTR1, NPF2.10); under 25 µM on GTR2 (AtGTR2, NPF2.11).

Take `N#C[C@H](O[C@@H]1O[C@H](CO)[C@@H](O)[C@H](O)[C@H]1O)c1ccccc1` [prunasin]: the “oocyte uptake, LC-MS” value is listed as “Uptake of prunasin was detected in oocytes expressing Me15G176100” at Me15G176100 and “Me14G074000 from cassava accumulated prunasin, but not linamarin, to levels equivalent to media” on Me14G074000.

For `CSCCCC/C(=N/OS(=O)(=O)O)S[C@@H]1O[C@H](CO)[C@@H](O)[C@H](O)[C@H]1O` [4MTB, 4-methylthiobutyl glucosinolate], the “oocyte uptake, LC-MS; TEVC currents” value on BrGTR1 (BrF01711) is “BrGTR1 ortholog (BrF01711) transported 4MTB and I3M with similar efficiency”. The Km in the data set on CpGTRL2 (Cp17.190) amounted to 85 ± 12 µM. In addition, the “oocyte uptake, LC-MS” value at Me14G074000 is “Me14G074000 from cassava over-accumulated both 4MTB and I3M relative to external media”.

B1: MeCGTR1 (Me15G180400) (Manihot esculenta) (protein)
chain: MENGNDHAQDQQKSIEKDEEPVINYRGIKAMPFIIGNETFEKLGTVGSSTNLVVYLNTVFNLKSVTATTLVNIFNGTTNLAPLLGAFLCDTYFGRYKTLGFASVASFLGMSALALTAAVPTLHPPKCVGKESSQCVGPSIWQLAFLLCGFGLIAIGAGGIRPCNLAFGAEQFNPNTESGKRGMSSFFNWYYFTYTFAVMVSVTGIVYVQSDVSWAIGLAIPAFLMFLSCAVFFIGTKIYVIVKPEGSPITSVVQVLVVSVKKRGLKLPQNPAVSLFNYVPAKSINSRLSHTEQFSFLDKAAIVTEKDEINLDGSAANPWRLCSIQQVEEVKCMVRIIPIWASAIIYHVPLIQQQTYAVLQALQLDRRLGTGSFEIPAATFIIFTMLALTIWIPIYDRILVPFLQRLTGKEGGFTLLQRMGIGILLSVLCMFVSGLVESHRRDIALSKPTLGISPKGGAVSSMTWLWLVPQLALAGLSEGFNYVSQIEFYYKQFPENMRSIAGSSFFAGLALANFLSGLLVSTIHKITSATKSGDWLSEDLNKGKLDHFYYVIGVLGTVNMAYFLLCAKWYRYKVREDDGSVEMSNKSSVKHHV
notes: full-length untagged, codon-optimized cRNA in Xenopus laevis oocytes (pNB1u); primer encodes N-term MENGNDH
On to B1, for which the Km is listed as 262 ± 15 µM in data set [1] and 80 ± 7 µM in [2].
